Assay results: the NIST ThermoML archive (doi:10.1016/j.jct.2019.02.011)
± gives the expanded uncertainty stated by the source.

Assay: xn = mol fraction of the nth substance listed
Conditions: Liquid, Vibrating tube method

COC(=O)OC [dimethyl carbonate] + CCO
mass density [kg/m3]
Conditions | 100 kPa | 5000 kPa | 10000 kPa | 15000 kPa | 20000 kPa | 25000 kPa | 30000 kPa | 35000 kPa | 40000 kPa
298.15 K, x1 = 0.0252 | – | – | – | – | – | 814.77 ± 1.4 | 818.23 ± 1.4 | 821.35 ± 1.4 | 824.85 ± 1.4
298.15 K, x1 = 0.0506 | – | – | – | – | – | 824.39 ± 1.4 | 827.85 ± 1.4 | 831.03 ± 1.4 | 834.55 ± 1.4
298.15 K, x1 = 0.0757 | – | – | – | – | – | 833.72 ± 1.4 | 837.24 ± 1.4 | 840.42 ± 1.4 | 843.95 ± 1.4
298.15 K, x1 = 0.1003 | – | – | – | – | – | 842.57 ± 1.4 | 846.09 ± 1.4 | 849.38 ± 1.4 | 852.92 ± 1.4
298.15 K, x1 = 0.1508 | – | – | – | – | – | 860.52 ± 1.4 | 864.11 ± 1.4 | 867.41 ± 1.4 | 871.01 ± 1.4
298.15 K, x1 = 0.2 | – | – | – | – | – | 877.33 ± 1.4 | 880.97 ± 1.4 | 884.34 ± 1.4 | 887.93 ± 1.4
298.15 K, x1 = 0.2547 | – | – | – | – | – | 895.44 ± 1.4 | 899.14 ± 1.4 | 902.52 ± 1.4 | 906.18 ± 1.4
298.15 K, x1 = 0.3002 | – | – | – | – | – | 910.03 ± 1.4 | 913.74 ± 1.4 | 917.13 ± 1.4 | 920.8 ± 1.4
298.15 K, x1 = 0.3498 | – | – | – | – | – | 925.47 ± 1.4 | 929.2 ± 1.4 | 932.65 ± 1.5 | 936.29 ± 1.5
298.15 K, x1 = 0.4 | – | – | – | – | – | 940.64 ± 1.5 | 944.38 ± 1.5 | 947.84 ± 1.5 | 951.52 ± 1.5
298.15 K, x1 = 0.449 | – | – | – | – | – | 954.89 ± 1.5 | 958.68 ± 1.5 | 962.16 ± 1.5 | 965.81 ± 1.5
298.15 K, x1 = 0.4996 | – | – | – | – | – | 969.11 ± 1.5 | 972.91 ± 1.5 | 976.39 ± 1.5 | 980.05 ± 1.5
298.15 K, x1 = 0.5507 | – | – | – | – | 979.03 ± 1.5 | 982.99 ± 1.5 | 986.8 ± 1.5 | 990.35 ± 1.5 | 994.01 ± 1.5
298.15 K, x1 = 0.6005 | – | – | – | – | 992.03 ± 1.5 | 996 ± 1.5 | 999.82 ± 1.5 | 1003.37 ± 1.5 | 1006.99 ± 1.5
298.15 K, x1 = 0.6455 | – | – | – | – | 1003.31 ± 1.5 | 1007.29 ± 1.5 | 1011.17 ± 1.5 | 1014.73 ± 1.5 | 1018.41 ± 1.5
298.15 K, x1 = 0.6931 | – | – | – | – | 1014.9 ± 1.5 | 1018.88 ± 1.5 | 1022.77 ± 1.5 | 1026.34 ± 1.5 | 1030.03 ± 1.5
298.15 K, x1 = 0.7502 | – | – | – | – | 1028.23 ± 1.5 | 1032.23 ± 1.5 | 1036.12 ± 1.5 | 1039.75 ± 1.5 | 1043.4 ± 1.5
298.15 K, x1 = 0.8009 | – | – | – | – | 1039.69 ± 1.5 | 1043.7 ± 1.5 | 1047.6 ± 1.5 | 1051.24 ± 1.6 | 1054.89 ± 1.6
298.15 K, x1 = 0.8505 | – | – | – | – | 1050.49 ± 1.5 | 1054.48 ± 1.6 | 1058.39 ± 1.6 | 1062.04 ± 1.6 | 1065.71 ± 1.6
298.15 K, x1 = 0.9008 | – | – | – | – | 1061.05 ± 1.6 | 1065.07 ± 1.6 | 1068.99 ± 1.6 | 1072.64 ± 1.6 | 1076.29 ± 1.6
298.15 K, x1 = 0.9255 | – | – | – | – | 1066.12 ± 1.6 | 1070.15 ± 1.6 | 1074.07 ± 1.6 | 1077.73 ± 1.6 | 1081.38 ± 1.6
298.15 K, x1 = 0.9477 | – | – | – | – | 1070.6 ± 1.6 | 1074.63 ± 1.6 | 1078.55 ± 1.6 | 1082.21 ± 1.6 | 1085.85 ± 1.6
298.15 K, x1 = 0.9735 | – | – | – | – | 1075.75 ± 1.6 | 1079.76 ± 1.6 | 1083.68 ± 1.6 | 1087.3 ± 1.6 | 1090.94 ± 1.6
298.15 K, x1 = 1 | – | – | – | – | 1080.9 ± 0.6 | 1084.89 ± 0.61 | 1088.82 ± 0.62 | 1092.44 ± 0.64 | 1096.04 ± 0.65
303.15 K, x1 = 0.0252 | 790.52 ± 1.4 | 794.85 ± 1.4 | 799.09 ± 1.4 | 803.19 ± 1.4 | 807.07 ± 1.4 | 810.85 ± 1.4 | 814.45 ± 1.4 | – | –
303.15 K, x1 = 0.0506 | 799.8 ± 1.4 | 804.24 ± 1.4 | 808.54 ± 1.4 | 812.68 ± 1.4 | 816.57 ± 1.4 | 820.4 ± 1.4 | 824.05 ± 1.4 | – | –
303.15 K, x1 = 0.0757 | 808.95 ± 1.4 | 813.38 ± 1.4 | 817.69 ± 1.4 | 821.83 ± 1.4 | 825.78 ± 1.4 | 829.67 ± 1.4 | 833.32 ± 1.4 | – | –
303.15 K, x1 = 0.1003 | 817.66 ± 1.4 | 822.15 ± 1.4 | 826.46 ± 1.4 | 830.66 ± 1.4 | 834.61 ± 1.4 | 838.5 ± 1.4 | 842.15 ± 1.4 | – | –
303.15 K, x1 = 0.1508 | 835.2 ± 1.4 | 839.75 ± 1.4 | 844.12 ± 1.4 | 848.37 ± 1.4 | 852.39 ± 1.4 | 856.28 ± 1.4 | 859.99 ± 1.4 | – | –
303.15 K, x1 = 0.2 | 851.75 ± 1.4 | 856.29 ± 1.4 | 860.68 ± 1.4 | 864.98 ± 1.4 | 869.06 ± 1.4 | 873.01 ± 1.4 | 876.77 ± 1.4 | – | –
303.15 K, x1 = 0.2547 | 869.58 ± 1.4 | 874.18 ± 1.4 | 878.59 ± 1.4 | 882.88 ± 1.4 | 886.98 ± 1.4 | 890.99 ± 1.4 | 894.76 ± 1.4 | – | –
303.15 K, x1 = 0.3002 | 883.92 ± 1.4 | 888.57 ± 1.4 | 893.03 ± 1.4 | 897.33 ± 1.4 | 901.44 ± 1.4 | 905.46 ± 1.4 | 909.28 ± 1.4 | – | –
303.15 K, x1 = 0.3498 | 899.15 ± 1.4 | 903.81 ± 1.4 | 908.28 ± 1.4 | 912.64 ± 1.4 | 916.76 ± 1.4 | 920.83 ± 1.4 | 924.6 ± 1.4 | – | –
303.15 K, x1 = 0.4 | 914.01 ± 1.4 | 918.72 ± 1.4 | 923.21 ± 1.4 | 927.61 ± 1.4 | 931.75 ± 1.4 | 935.83 ± 1.5 | 939.65 ± 1.5 | – | –
303.15 K, x1 = 0.449 | 928.1 ± 1.4 | 932.82 ± 1.4 | 937.32 ± 1.4 | 941.72 ± 1.5 | 945.87 ± 1.5 | 949.95 ± 1.5 | 953.78 ± 1.5 | – | –
303.15 K, x1 = 0.4996 | 942.11 ± 1.5 | 946.83 ± 1.5 | 951.34 ± 1.5 | 955.75 ± 1.5 | 959.95 ± 1.5 | 964.05 ± 1.5 | 967.88 ± 1.5 | – | –
303.15 K, x1 = 0.5507 | 955.78 ± 1.5 | 960.51 ± 1.5 | 965.03 ± 1.5 | 969.44 ± 1.5 | 973.66 ± 1.5 | 977.76 ± 1.5 | 981.64 ± 1.5 | – | –
303.15 K, x1 = 0.6005 | 968.59 ± 1.5 | 973.37 ± 1.5 | 977.9 ± 1.5 | 982.31 ± 1.5 | 986.54 ± 1.5 | 990.65 ± 1.5 | 994.54 ± 1.5 | – | –
303.15 K, x1 = 0.6455 | 979.73 ± 1.5 | 984.57 ± 1.5 | 989.11 ± 1.5 | 993.57 ± 1.5 | 997.8 ± 1.5 | 1001.97 ± 1.5 | 1005.86 ± 1.5 | – | –
303.15 K, x1 = 0.6931 | 991.23 ± 1.5 | 996.02 ± 1.5 | 1000.62 ± 1.5 | 1005.08 ± 1.5 | 1009.33 ± 1.5 | 1013.44 ± 1.5 | 1017.34 ± 1.5 | – | –
303.15 K, x1 = 0.7502 | 1004.42 ± 1.5 | 1009.26 ± 1.5 | 1013.82 ± 1.5 | 1018.28 ± 1.5 | 1022.54 ± 1.5 | 1026.71 ± 1.5 | 1030.61 ± 1.5 | – | –
303.15 K, x1 = 0.8009 | 1015.74 ± 1.5 | 1020.59 ± 1.5 | 1025.15 ± 1.5 | 1029.62 ± 1.5 | 1033.88 ± 1.5 | 1038.07 ± 1.5 | 1041.97 ± 1.5 | – | –
303.15 K, x1 = 0.8505 | 1026.43 ± 1.5 | 1031.28 ± 1.5 | 1035.85 ± 1.5 | 1040.32 ± 1.5 | 1044.59 ± 1.5 | 1048.83 ± 1.5 | – | – | –
303.15 K, x1 = 0.9008 | 1036.88 ± 1.5 | 1041.74 ± 1.5 | 1046.31 ± 1.5 | 1050.81 ± 1.5 | 1055.12 ± 1.6 | 1059.33 ± 1.6 | – | – | –
303.15 K, x1 = 0.9255 | 1041.88 ± 1.5 | 1046.76 ± 1.5 | 1051.32 ± 1.5 | 1055.83 ± 1.6 | 1060.15 ± 1.6 | 1064.37 ± 1.6 | – | – | –
303.15 K, x1 = 0.9477 | 1046.34 ± 1.5 | 1051.21 ± 1.5 | 1055.79 ± 1.6 | 1060.28 ± 1.6 | 1064.6 ± 1.6 | 1068.85 ± 1.6 | – | – | –
303.15 K, x1 = 0.9735 | 1051.45 ± 1.5 | 1056.32 ± 1.6 | 1060.89 ± 1.6 | 1065.37 ± 1.6 | 1069.67 ± 1.6 | 1073.92 ± 1.6 | – | – | –
303.15 K, x1 = 1 | 1056.61 ± 0.56 | 1061.47 ± 0.57 | 1066.02 ± 0.57 | 1070.49 ± 0.58 | 1074.79 ± 0.59 | 1078.99 ± 0.6 | – | – | –
